Data reported in the NIST ThermoML archive (doi:10.1021/je8003782).

Assay: xn = mol fraction of the nth substance listed
Settings: 101 kPa, Liquid

C1N2CN3CN1CN(C2)C3 [1,3,5,7-tetraazaadamantane] + CC(=O)O
Settings | mass density [kg/m3] | viscosity [mPa·s]
293.15 K, x1 = 0.0201 | 1058.6 | 1.497
293.15 K, x1 = 0.0401 | 1066.7 | 1.865
293.15 K, x1 = 0.06 | 1075.67 | 2.363
293.15 K, x1 = 0.0801 | 1085.77 | 3.021
293.15 K, x1 = 0.1 | 1091.87 | 3.841
293.15 K, x1 = 0.1201 | 1100.76 | 4.951
293.15 K, x1 = 0.15 | 1111.19 | 7.154
298.15 K, x1 = 0.0201 | 1052.66 | 1.367
298.15 K, x1 = 0.0401 | 1061.41 | 1.682
298.15 K, x1 = 0.06 | 1070.38 | 2.106
298.15 K, x1 = 0.0801 | 1080.66 | 2.655
298.15 K, x1 = 0.1 | 1086.54 | 3.333
298.15 K, x1 = 0.1201 | 1095.79 | 4.254
298.15 K, x1 = 0.15 | 1106.18 | 5.988
303.15 K, x1 = 0.0201 | 1046.65 | 1.248
303.15 K, x1 = 0.0401 | 1055.87 | 1.523
303.15 K, x1 = 0.06 | 1065.17 | 1.893
303.15 K, x1 = 0.0801 | 1075.44 | 2.355
303.15 K, x1 = 0.1 | 1081.61 | 2.919
303.15 K, x1 = 0.1201 | 1090.8 | 3.657
303.15 K, x1 = 0.15 | 1101.14 | 5.085
308.15 K, x1 = 0.0201 | 1042.8 | 1.148
308.15 K, x1 = 0.0401 | 1050.6 | 1.383
308.15 K, x1 = 0.06 | 1059.92 | 1.703
308.15 K, x1 = 0.0801 | 1068.93 | 2.091
308.15 K, x1 = 0.1 | 1076.58 | 2.565
308.15 K, x1 = 0.1201 | 1086.04 | 3.179
308.15 K, x1 = 0.15 | 1096.34 | 4.368
313.15 K, x1 = 0.0201 | 1036.2 | 1.059
313.15 K, x1 = 0.0401 | 1045.66 | 1.268
313.15 K, x1 = 0.06 | 1055.02 | 1.549
313.15 K, x1 = 0.0801 | 1063.52 | 1.879
313.15 K, x1 = 0.1 | 1071.68 | 2.296
313.15 K, x1 = 0.1201 | 1081.27 | 2.806
313.15 K, x1 = 0.15 | 1091.63 | 3.821
318.15 K, x1 = 0.0201 | 1030.1 | 0.992
318.15 K, x1 = 0.0401 | 1039.61 | 1.179
318.15 K, x1 = 0.06 | 1049.52 | 1.435
318.15 K, x1 = 0.0801 | 1057.74 | 1.719
318.15 K, x1 = 0.1 | 1065.6 | 2.073
318.15 K, x1 = 0.1201 | 1076.49 | 2.512
318.15 K, x1 = 0.15 | 1086 | 3.352
323.15 K, x1 = 0.0201 | 1024.35 | 0.909
323.15 K, x1 = 0.0401 | 1034.21 | 1.072
323.15 K, x1 = 0.06 | 1044.05 | 1.296
323.15 K, x1 = 0.0801 | 1052.4 | 1.541
323.15 K, x1 = 0.1 | 1060.71 | 1.842
323.15 K, x1 = 0.1201 | 1069.06 | 2.203
323.15 K, x1 = 0.15 | 1080.9 | 2.893
328.15 K, x1 = 0.0201 | 1019.23 | 0.845
328.15 K, x1 = 0.0401 | 1028.98 | 0.988
328.15 K, x1 = 0.06 | 1039.22 | 1.185
328.15 K, x1 = 0.0801 | 1047.33 | 1.395
328.15 K, x1 = 0.1 | 1055.72 | 1.657
328.15 K, x1 = 0.1201 | 1064 | 1.97
328.15 K, x1 = 0.15 | 1075.88 | 2.545
333.15 K, x1 = 0.0201 | 1014.76 | 0.79
333.15 K, x1 = 0.0401 | 1024.69 | 0.919
333.15 K, x1 = 0.06 | 1034.16 | 1.096
333.15 K, x1 = 0.0801 | 1043.04 | 1.279
333.15 K, x1 = 0.1 | 1051.63 | 1.515
333.15 K, x1 = 0.1201 | 1059.77 | 1.776
333.15 K, x1 = 0.15 | 1071.94 | 2.285
